Tests used:
D2 receptor = D2 receptor (Homo sapiens, UniProt P14416); test: Dopamine D2 receptor binding test
Description: Dopamine D2 Receptor Binding Test
In this experiment, HEK293 cells were transfected with plasmid vector containing D2 receptor protein gene, and calcium phosphate transfection method was used and after transfection, the cells were cultured in a culture solution containing G418, and the cell monoclonal and radioligand binding experiments were selected, and finally a stable cell line which could stably express D2 receptor protein was obtained.
HeK-293 cells were infected with recombinant viruses containing the above various genes respectively, and after 48-72 hours, the receptor proteins were expressed in large quantities on the membrane, and the cells were centrifuged at 1000 rpm for 5 min and then the culture solution was discarded, and the cells were collected, and stored in a −20° C. refrigerator for later use. Tris-HCl reaction buffer (pH=7.5) was used to resuspend in the experiment.
On the Millipore cell sample collector, the mixture was quickly filtrated under reduced pressure through GF/C glass fiber filter paper, and eluted with 3 mL of eluent (50 mMTris-HCl, pH 7.5) for 3 times, then dried under microwave for 5 to 6 min. The filter paper was moved into a 0.5 mL centrifuge tube, and 500 μL of lipid-soluble scintillation solution was added. The mixture was kept in the dark for more than 30 min, and the radioactivity intensity was determined by counting. […] Two replicate tubes were made for each experiment of compound, and two separate experiments were performed.
Two tubes were tested for each concentration and two independent tests were performed for each compound.

5-HT2A receptor = molecular target: T1, 5-HT2A receptor (Homo sapiens, UniProt P28223); test: 5-HT2A receptor binding test; details: [3H]-Ketanserin, 5-HT2A receptor expressed in HEK293 cells; read-out: Affinity of the compound for each receptor (Ki value, nM) 5-HT2A
T1 construct: expressed in transfected cells; host or cells: HEK293
From the text: 5-HT2A Receptor Binding Test
Beckman LS-6500 multifunctional liquid scintillation counter.
Tris-HCl reaction buffer (pH 7.7) was used to resuspend in the experiment.

[1] = molecular target: T2, human recombinant D3 receptor (Homo sapiens, UniProt P35462); test: Dopamine D3 receptor binding test; details: [3H]methyl-spiperone 0.3 nM, human recombinant D3 receptor expressed in CHO cells; read-out: Affinity of the compound for each receptor (Ki value, nM) D3
T2 construct: expressed in transfected cells; host or cells: CHO
Description: Dopamine D3 Receptor Binding Test
[^3H]methyl-spiperone (0.3 nM) was used as the ligand, and (+)-butaclamol (10 μM) was used to determine the non-specific binding, and the binding assay was performed on human recombinant D3 receptor (expressed in CHO cells).

H1 receptor = molecular target: T3, H1 receptor (Homo sapiens, UniProt P35367); test: H1 receptor binding test; details: 1 nM [3H]pyrilamine, HEK-293 cell membrane homogenate; read-out: Affinity of the compound for H1 receptor (Ki value, nM) H1
T3 construct: expressed in transfected cells; host or cells: HEK-293
Description: Non-specific binding was determined in the presence of 1 μM pyrilamine.

T1 sequence (P28223 whole entry): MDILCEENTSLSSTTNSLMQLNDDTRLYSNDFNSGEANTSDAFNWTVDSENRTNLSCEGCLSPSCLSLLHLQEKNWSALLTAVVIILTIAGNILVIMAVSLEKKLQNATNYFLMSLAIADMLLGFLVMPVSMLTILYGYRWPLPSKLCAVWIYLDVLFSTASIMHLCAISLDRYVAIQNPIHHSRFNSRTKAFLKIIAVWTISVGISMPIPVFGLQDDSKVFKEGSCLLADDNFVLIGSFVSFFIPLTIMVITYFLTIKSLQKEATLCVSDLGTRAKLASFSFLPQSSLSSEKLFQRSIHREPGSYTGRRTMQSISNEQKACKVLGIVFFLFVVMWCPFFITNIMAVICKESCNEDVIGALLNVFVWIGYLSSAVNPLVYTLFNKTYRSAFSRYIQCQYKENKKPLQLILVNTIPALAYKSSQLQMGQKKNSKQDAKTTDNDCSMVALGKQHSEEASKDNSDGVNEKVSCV
T3 sequence (P35367 whole entry): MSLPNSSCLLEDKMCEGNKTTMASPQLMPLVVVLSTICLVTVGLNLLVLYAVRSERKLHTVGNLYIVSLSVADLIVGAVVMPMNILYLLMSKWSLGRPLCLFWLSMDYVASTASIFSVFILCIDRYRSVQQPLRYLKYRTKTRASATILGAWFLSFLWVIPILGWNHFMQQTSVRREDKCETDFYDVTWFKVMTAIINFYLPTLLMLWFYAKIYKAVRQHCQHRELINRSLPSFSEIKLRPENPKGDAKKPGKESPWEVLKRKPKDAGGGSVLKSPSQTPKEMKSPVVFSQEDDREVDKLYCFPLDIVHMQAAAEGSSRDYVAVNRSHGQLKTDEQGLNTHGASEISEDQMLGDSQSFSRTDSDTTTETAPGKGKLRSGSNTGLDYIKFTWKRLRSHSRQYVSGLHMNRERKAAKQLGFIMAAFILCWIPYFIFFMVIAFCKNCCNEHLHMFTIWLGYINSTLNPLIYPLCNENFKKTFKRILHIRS
T2 sequence (P35462 whole entry): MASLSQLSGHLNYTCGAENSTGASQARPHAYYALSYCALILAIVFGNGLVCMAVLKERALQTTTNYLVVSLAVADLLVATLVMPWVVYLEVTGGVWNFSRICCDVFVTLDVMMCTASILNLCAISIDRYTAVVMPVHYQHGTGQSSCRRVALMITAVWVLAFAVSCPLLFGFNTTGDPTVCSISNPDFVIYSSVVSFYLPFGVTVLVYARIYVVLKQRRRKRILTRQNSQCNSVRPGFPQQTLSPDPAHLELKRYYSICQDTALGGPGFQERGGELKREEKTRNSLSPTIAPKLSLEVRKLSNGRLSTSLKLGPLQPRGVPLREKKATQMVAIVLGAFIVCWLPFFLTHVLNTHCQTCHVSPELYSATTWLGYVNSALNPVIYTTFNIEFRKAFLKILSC
Chain of D2 receptor (P14416 whole entry): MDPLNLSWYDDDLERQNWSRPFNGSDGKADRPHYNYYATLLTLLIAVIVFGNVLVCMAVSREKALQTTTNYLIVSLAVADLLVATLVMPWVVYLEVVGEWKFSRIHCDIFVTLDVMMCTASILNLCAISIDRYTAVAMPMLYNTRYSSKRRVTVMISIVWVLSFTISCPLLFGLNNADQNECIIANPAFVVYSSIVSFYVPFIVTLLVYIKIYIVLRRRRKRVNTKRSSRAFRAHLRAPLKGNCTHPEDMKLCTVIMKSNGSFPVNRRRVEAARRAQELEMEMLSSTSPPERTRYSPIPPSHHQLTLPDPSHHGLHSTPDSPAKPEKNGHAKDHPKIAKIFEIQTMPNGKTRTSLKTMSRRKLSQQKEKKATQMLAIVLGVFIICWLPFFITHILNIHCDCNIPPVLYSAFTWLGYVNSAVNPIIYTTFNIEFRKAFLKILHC

Row | Compound | Ki (D2 receptor) | Ki (5-HT2A receptor) | Ki [1] | Ki (H1 receptor)
1 | CC(=O)N[C@H]1CC[C@H](CCN2CCN(c3cc(-c4ccccc4)cc(N4CCOCC4)n3)CC2)CC1 [Compound I-1, N-(trans-4-(2-(4-(6-morpholino-4-phenylpyridin-2-yl)piperazin-1-yl)ethyl)cyclohexyl)acetamide] | 3.1 nM | 1.7 nM | 0.2 nM | 760 nM
2 | CCCC(=O)N[C@H]1CC[C@H](CCN2CCN(c3cc(-c4ccccc4)cc(N4CCOCC4)n3)CC2)CC1 [Compound I-2, N-(trans-4-(2-(4-(6-morpholino-4-phenylpyridin-2-yl)piperazin-1-yl)ethyl)cyclohexyl)butyramide] | 1.2 nM | 1.9 nM | 0.1 nM | 950 nM
3 | O=C(N[C@H]1CC[C@H](CCN2CCN(c3cc(-c4ccccc4)cc(N4CCOCC4)n3)CC2)CC1)C1CC1 [Compound I-4, N-((trans)-4-(2-(4-(6-morpholino-4-phenylpyridin-2-yl)piperazin-1-yl)ethyl)cyclohexyl)cyclopropanecarboxamide] | 2 nM | 3.9 nM | 0.05 nM | 550 nM
4 | O=C(N[C@H]1CC[C@H](CCN2CCN(c3cc(-c4ccccc4)cc(N4CCOCC4)n3)CC2)CC1)C1CCCCC1 [Compound I-5] | 8.6 nM | 1.1 nM | 0.9 nM | > 1000 nM
5 | CN(C)C(=O)N[C@H]1CC[C@H](CCN2CCN(c3cc(-c4ccccc4)cc(N4CCOCC4)n3)CC2)CC1 [Compound I-7, 1,1-dimethyl-3-(trans-4-(2-(4-(6-morpholino-4-phenylpyridin-2-yl)piperazin-1-yl)ethyl)cyclohexyl)urea] | 0.12 nM | 0.2 nM | 0.01 nM | 420 nM
6 | CC(=O)N[C@H]1CC[C@H](CCN2CCN(c3cc(-c4ccco4)cc(N4CCOCC4)n3)CC2)CC1 [Compound V-1, N-(trans-4-(2-(4-(4-(furan-2-yl)-6-morpholinopyridin-2-yl)piperazin-1-yl)ethyl)cyclohexyl)acetamide] | 8.1 nM | 1.6 nM | 0.7 nM | 530 nM
7 | COCC(=O)N[C@H]1CC[C@H](CCN2CCN(c3cc(-c4ccco4)cc(N4CCOCC4)n3)CC2)CC1 [Compound V-2, N-(trans-4-(2-(4-(4-(furan-2-yl)-6-morpholinopyridin-2-yl)piperazin-1-yl)ethyl)cyclohexyl)-2-methoxyacetamide] | 15.2 nM | 8.8 nM |  | 740 nM
8 | CN(C)C(=O)N[C@H]1CC[C@H](CCN2CCN(c3cc(-c4ccco4)cc(N4CCOCC4)n3)CC2)CC1 [Compound V-3, 3-(trans-4-(2-(4-(4-(furan-2-yl)-6-morpholinopyridin-2-yl)piperazin-1-yl)ethyl)cyclohexyl)-1,1-dimethylurea] | 7.1 nM | 5 nM | 0.07 nM | 800 nM
9 | O=C(N[C@H]1CC[C@H](CCN2CCN(c3cc(-c4ccco4)cc(N4CCOCC4)n3)CC2)CC1)N1CCCCC1 [Compound V-4, N-(trans-4-(2-(4-(4-(furan-2-yl)-6-morpholinopyridin-2-yl)piperazin-1-yl)ethyl)cyclohexyl)piperidine-1-carboxamide] | 10.6 nM | 2.8 nM | 0.3 nM | > 1000 nM
10 | O=C(N[C@H]1CC[C@H](CCN2CCN(c3cc(-c4ccc(F)cc4)cc(N4CCOCC4)n3)CC2)CC1)c1ccccc1 [II-1, N-(trans-4-(2-(4-(4-(4-fluorophenyl)-6-morpholinopyridin-2-yl)piperazin-1-yl)ethyl)cyclohexyl)benzamide] | 1.7 nM | 2.3 nM | 0.2 nM | 670 nM
11 | O=C(N[C@H]1CC[C@H](CCN2CCN(c3cc(-c4ccc(F)cc4)cc(N4CCOCC4)n3)CC2)CC1)c1ccco1 [II-3, N-(trans-4-(2-(4-(4-(4-fluorophenyl)-6-morpholinopyridin-2-yl)piperazin-1-yl)ethyl)cyclohexyl)furan-2-carboxamide] | 1.4 nM | 1.2 nM | 0.09 nM | 980 nM
12 | CNC(=O)N[C@H]1CC[C@H](CCN2CCN(c3cc(-c4ccc(F)cc4)cc(N4CCOCC4)n3)CC2)CC1 [II-4, 1-(trans-4-(2-(4-(4-(4-fluorophenyl)-6-morpholinopyridin-2-yl)piperazin-1-yl)ethyl)cyclohexyl)-3-methylurea] | 2.8 nM | 0.9 nM | 0.3 nM | 540 nM
13 | CN(C)C(=O)N[C@H]1CC[C@H](CCN2CCN(c3cc(-c4ccc(F)cc4)cc(N4CCOCC4)n3)CC2)CC1 [II-5, 3-(trans-4-(2-(4-(4-(4-fluorophenyl)-6-morpholinopyridin-2-yl)piperazin-1-yl)ethyl)cyclohexyl)-1,1-dimethylurea] |  |  |  | 300 nM
14 | COc1ccc(-c2cc(N3CCOCC3)nc(N3CCN(CC[C@H]4CC[C@H](NC(=O)N5CCCC5)CC4)CC3)c2)cc1 [III-1, N-(trans-4-(2-(4-(4-(4-methoxyphenyl)-6-morpholinopyridin-2-yl)piperazin-1-yl)ethyl)cyclohexyl)tetrahydropyrrole-1-carboxamide] | 3.2 nM | 10.8 nM | 0.2 nM | > 1000 nM
15 | COc1ccc(-c2cc(N3CCOCC3)nc(N3CCN(CC[C@H]4CC[C@H](NC(=O)N5CCOCC5)CC4)CC3)c2)cc1 [III-2, N-(trans-4-(2-(4-(4-(4-methoxyphenyl)-6-morpholinopyridin-2-yl)piperazin-1-yl)ethyl)cyclohexyl)morpholine-4-carboxamide] | 1.9 nM | 5.1 nM | 0.07 nM | > 1000 nM
16 | COc1ccc(-c2cc(N3CCOCC3)nc(N3CCN(CC[C@H]4CC[C@H](NC(=O)N5CCCCC5)CC4)CC3)c2)cc1 [III-3, N-(trans-4-(2-(4-(4-(4-methoxyphenyl)-6-morpholinopyridin-2-yl)piperazin-1-yl)ethyl)cyclohexyl)piperidine-1-carboxamide] | 4.6 nM | 12.5 nM | 0.5 nM | > 1000 nM
17 | COc1ccc(-c2cc(N3CCOCC3)nc(N3CCN(CC[C@H]4CC[C@H](NC(=O)N5CCN(C)CC5)CC4)CC3)c2)cc1 [III-4, N-(trans-4-(2-(4-(4-(4-methoxyphenyl)-6-morpholinopyridin-2-yl)piperazin-1-yl)ethyl)cyclohexyl)-4-methylpiperazine-1-carboxamide] | 11.8 nM | 6.6 nM |  | 980 nM
18 | CCC(=O)N[C@H]1CC[C@H](CCN2CCN(c3cc(-c4cccnc4)cc(N4CCOCC4)n3)CC2)CC1 [IV-1] | 2.5 nM | 2.7 nM | 0.05 nM | > 1000 nM
19 | CN(C)C(=O)N[C@H]1CC[C@H](CCN2CCN(c3cc(-c4cccnc4)cc(N4CCOCC4)n3)CC2)CC1 [IV-3] | 2 nM | 3.6 nM | 0.1 nM | 790 nM
20 | CC(C)N(C(=O)N[C@H]1CC[C@H](CCN2CCN(c3cc(-c4cccnc4)cc(N4CCOCC4)n3)CC2)CC1)C(C)C [IV-4] | 1.7 nM | 8.7 nM | 0.08 nM | 670 nM
21 | O=C(N[C@H]1CC[C@H](CCN2CCN(c3cc(-c4cccs4)cc(N4CCOCC4)n3)CC2)CC1)C1CC1 [VI-2, N-(trans-4-(2-(4-(6-morpholino-4-(thiophen-2-yl)pyridin-2-yl)piperazin-1-yl)ethyl)cyclohexyl)cyclopropanecarboxamide] | 1.3 nM | 2.1 nM | 0.08 nM | > 1000 nM
22 | O=C(N[C@H]1CC[C@H](CCN2CCN(c3cc(-c4cccs4)cc(N4CCOCC4)n3)CC2)CC1)c1cccnc1 [VI-3, N-(trans-4-(2-(4-(6-morpholino-4-(thiophen-2-yl)pyridin-2-yl)piperazin-1-yl)ethyl)cyclohexyl)nicotinamide] | 1.9 nM | 1.7 nM | 0.8 nM | 740 nM
23 | CN(C)C(=O)N[C@H]1CC[C@H](CCN2CCN(c3cc(-c4cccs4)cc(N4CCOCC4)n3)CC2)CC1 [VI-4, 1,1-dimethyl-3-(trans-4-(2-(4-(6-morpholino-4-(thiophen-2-yl)pyridin-2-yl)piperazin-1-yl)ethyl)cyclohexyl)urea] | 2 nM | 0.9 nM | 0.1 nM | 590 nM
24 | CCC(=O)N[C@H]1CC[C@H](CCN2CCN(c3cc(-c4ccc[nH]4)cc(N4CCOCC4)n3)CC2)CC1 [VII-1, N-(trans-4-(2-(4-(6-morpholino-4-(1H-pyrrol-2-yl)pyridin-2-yl)piperazin-1-yl)ethyl)cyclohexyl)propionamide] | 4.5 nM | 3.2 nM | 0.28 nM | 460 nM
25 | O=C(N[C@H]1CC[C@H](CCN2CCN(c3cc(-c4ccc[nH]4)cc(N4CCOCC4)n3)CC2)CC1)c1ccco1 [VII-2, N-(trans-4-(2-(4-(6-morpholino-4-(1H-pyrrol-2-yl)pyridin-2-yl)piperazin-1-yl)ethyl)cyclohexyl)furan-2-carboxamide] | 2.6 nM | 0.7 nM | 0.1 nM | 600 nM
26 | O=C(N[C@H]1CC[C@H](CCN2CCN(c3cc(-c4ccc[nH]4)cc(N4CCOCC4)n3)CC2)CC1)C1CCCCC1 [VII-3, N-(trans-4-(2-(4-(6-morpholino-4-(1H-pyrrol-2-yl)pyridin-2-yl)piperazin-1-yl)ethyl)cyclohexyl)cyclohexanecarboxamide] | 5.1 nM | 3.8 nM |  | 870 nM
